# According to patent US10669252B2, “Benzazepine derivative, preparation method, pharmaceutical composition and use thereof” (SHANGHAI DE NOVO PHARMATECH CO., LTD., priority 2016, dated 2020):
# Legend:
# TLR8 = biological target: T1, TLR8 (Homo sapiens, UniProt Q9NR97); assay: TLR8 cell based assay (HEK-BLUE-hTLR8, SEAP reporter linked to NF-κB activation); conditions: HEK-BLUE-hTLR8 cells
# T1 construct: host or cells: HEK293 (HEK-BLUE-hTLR8)
# T1 sequence (Q9NR97 27-1041): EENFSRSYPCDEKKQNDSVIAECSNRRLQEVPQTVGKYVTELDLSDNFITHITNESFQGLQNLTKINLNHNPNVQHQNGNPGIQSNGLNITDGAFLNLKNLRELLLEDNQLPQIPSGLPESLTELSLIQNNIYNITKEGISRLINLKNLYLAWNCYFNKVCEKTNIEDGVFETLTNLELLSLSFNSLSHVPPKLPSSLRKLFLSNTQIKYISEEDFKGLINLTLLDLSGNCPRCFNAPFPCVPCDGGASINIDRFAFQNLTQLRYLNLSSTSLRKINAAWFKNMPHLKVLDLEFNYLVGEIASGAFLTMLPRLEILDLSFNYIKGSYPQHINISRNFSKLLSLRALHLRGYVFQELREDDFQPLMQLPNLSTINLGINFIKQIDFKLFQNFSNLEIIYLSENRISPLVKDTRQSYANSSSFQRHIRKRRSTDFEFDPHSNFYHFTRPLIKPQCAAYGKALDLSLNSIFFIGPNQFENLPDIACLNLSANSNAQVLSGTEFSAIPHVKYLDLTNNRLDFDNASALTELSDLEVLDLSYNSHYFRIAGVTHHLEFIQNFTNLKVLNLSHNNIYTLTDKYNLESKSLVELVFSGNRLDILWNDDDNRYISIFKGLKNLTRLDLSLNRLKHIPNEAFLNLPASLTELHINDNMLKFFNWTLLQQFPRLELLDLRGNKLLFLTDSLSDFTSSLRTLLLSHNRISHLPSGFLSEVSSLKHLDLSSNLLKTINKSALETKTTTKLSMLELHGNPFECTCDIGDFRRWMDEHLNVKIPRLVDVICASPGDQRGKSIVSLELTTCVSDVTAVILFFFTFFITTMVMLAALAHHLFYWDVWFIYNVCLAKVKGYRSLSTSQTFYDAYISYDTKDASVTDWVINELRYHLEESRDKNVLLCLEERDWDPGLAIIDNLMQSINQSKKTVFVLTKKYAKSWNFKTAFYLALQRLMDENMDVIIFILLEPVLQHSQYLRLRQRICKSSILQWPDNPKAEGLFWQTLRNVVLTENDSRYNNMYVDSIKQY
# Description: (§1) In this assay, the bioactivity of compound of formula Iw as measured using a cell based assay. The assay was performed in human embryonic kidney cells (HEK293) expressing TLR8 or other TLR family members such as TLR4, TLR7 and TLR9 (for selectivity screens). The activity of specific TLR agonists was assessed using the secretory embryonic alkaline phosphatase (SEAP) reporter gene that is linked to NF-κB activation in response to TLR stimulation. The SEAP activity was measured using the Quanti-Blue substrate (InvivoGen) after TLR agonist treatment.
# (§2) The detailed experimental method is as follow:
# HEK-BLUE-hTLR8 cell line was purchased from InvivoGen. The cells were cultured in Dulbecco's Modified Eagle's Media containing 4.5 g/L […] (Sigma-Aldrich) and 10% FBS. The cells were cultured at 37° C., 95% humidity and 5% CO2.
# Test concentrations of the compounds ranged from 0.5 nM to 15 μM with 10 points. A known TLR8 agonist was added as positive control and 1 μl of DMSO was added as negative control.
# (§3) The cells were prepared as follows: The cells were removed from the incubator and growth medium was discarded. The cells were gently rinsed with pre-warmed 10 ml PBS for a T-150 flask. 12 ml pre-warmed growth medium was added, and the cells were detached by tapping the flask. Cell clumps were dissociated by gently pipetting up and down. The cells were counted. Single cell suspension was prepared at 200,000 cells per ml in growth medium and 200 μl of the cell suspension (40,000 cells per well) were immediately added to each well of the plate. The final DMSO concentration of each well was 0.5%.
# The cells were cultured and treated with the compounds at 37° C., 5% CO2 for 24 h.
# (§4) 20 μL of the supernatant of each well were added to 180 μL of QUANTI-Blue, and the plates were incubated at 37° C. for 1.5 hour. Optical density was measured using a spectrophotometer at 650 nm (OD data). Activivation was calculated by using the equation below: Activivation %=(Compound OD mean value−DMSO OD mean value)/(positive control OD mean value−DMSO OD mean value)×100
# (§5) The data were analyzed using the GraphPad to get EC50 values and fitting dose response curves of the compounds.
# TLR7 = biological target: T2, TLR7 (Homo sapiens, UniProt Q9NYK1); assay: TLR7 cell based assay (HEK-BLUE-hTLR7, SEAP reporter linked to NF-κB activation); conditions: HEK-BLUE-hTLR7 cells, 24 hours treatment, SEAP/QUANTI-Blue readout
# T2 construct: host or cells: HEK293 (HEK-BLUE-hTLR7)
# T2 sequence (Q9NYK1 27-1049): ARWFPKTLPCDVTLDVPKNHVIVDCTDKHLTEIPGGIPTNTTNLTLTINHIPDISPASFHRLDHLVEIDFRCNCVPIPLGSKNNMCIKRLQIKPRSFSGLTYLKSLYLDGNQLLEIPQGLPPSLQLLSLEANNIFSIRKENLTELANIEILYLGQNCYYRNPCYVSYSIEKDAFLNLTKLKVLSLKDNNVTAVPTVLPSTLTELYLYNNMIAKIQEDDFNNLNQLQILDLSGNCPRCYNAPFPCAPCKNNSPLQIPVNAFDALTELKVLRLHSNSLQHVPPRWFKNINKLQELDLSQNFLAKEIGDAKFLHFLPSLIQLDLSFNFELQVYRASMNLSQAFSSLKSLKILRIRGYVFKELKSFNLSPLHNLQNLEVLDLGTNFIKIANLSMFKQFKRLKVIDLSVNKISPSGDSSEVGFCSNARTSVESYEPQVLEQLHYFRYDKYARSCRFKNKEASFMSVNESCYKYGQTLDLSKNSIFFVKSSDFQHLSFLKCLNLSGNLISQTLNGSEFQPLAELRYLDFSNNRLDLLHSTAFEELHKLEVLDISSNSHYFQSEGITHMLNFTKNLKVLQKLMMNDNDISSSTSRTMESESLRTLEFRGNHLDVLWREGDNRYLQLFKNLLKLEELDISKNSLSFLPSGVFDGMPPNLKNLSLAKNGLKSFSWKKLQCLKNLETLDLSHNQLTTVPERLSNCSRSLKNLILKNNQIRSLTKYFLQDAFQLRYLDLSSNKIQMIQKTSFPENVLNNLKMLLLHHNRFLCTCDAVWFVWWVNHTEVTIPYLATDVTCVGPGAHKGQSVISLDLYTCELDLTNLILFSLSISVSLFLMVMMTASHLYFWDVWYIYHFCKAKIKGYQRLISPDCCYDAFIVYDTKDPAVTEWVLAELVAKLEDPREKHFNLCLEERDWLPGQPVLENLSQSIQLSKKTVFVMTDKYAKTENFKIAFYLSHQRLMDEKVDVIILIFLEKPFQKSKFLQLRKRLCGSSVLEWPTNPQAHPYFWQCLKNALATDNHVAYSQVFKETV
# Description: as §1, with “(I) was” for “Iw as”, “TLR7” for “TLR8”, “TLR4,” for “TLR4, TLR7”
# as §2
# HEK-BLUE-hTLR7 cell line was purchased from InvivoGen. The cells were cultured in Dulbecco's Modified Eagle's Media containing 4.5 g/L […] (Sigma-Aldrich) and 10% FBS. The cells were cultured at 37° C., 95% humidity and 5% CO2.
# […] A known TLR8 agonist was added as positive control and 1 μl of DMSO was added as negative control.
# as §3, with “follows.” for “follows:”
# The cells were cultured and treated with the compounds at 37° C., 5% CO2 for 24 hours.
# as §4, §5
# [1] = 24 h treatment, SEAP/QUANTI-Blue readout
SMILES,EC50 (TLR8; [1]) [nM],EC50 (TLR7) [nM],EC50 (TLR8; bound stated) [nM]
CCCN(CCC)C(=O)C1=Cc2c(F)cc(-c3ccc4c(=O)n(CCS(C)(=O)=O)c(=O)n(C)c4c3)cc2N=C(N)C1 [Compound 1-10-10],100 to 1000,,
CCCN(CCC)C(=O)C1=Cc2ccc(-c3ccc4c(=O)n(CCNS(C)(=O)=O)ncc4c3)cc2N=C(N)C1 [Compound 1-8-8],< 100,,
CCCN(CCC)C(=O)C1=Cc2ccc(-c3ccc4c(=O)n(CC(C)(C)O)c(=O)n(C)c4c3)cc2N=C(N)C1 [Compound 1-9-5],100 to 1000,,
CCCN(CCC)C(=O)C1=Cc2c(C)cc(-c3ccc4c(=O)n(Cc5ncccn5)ncc4c3)cc2N=C(N)C1 [Compound 2-3-2],< 100,,< 10
CCCN(CCC)C(=O)C1=Cc2ccc(-c3ccc4c(=O)n(CCNS(C)(=O)=O)c(=O)n(C)c4c3)cc2N=C(N)C1 [Compound 1-9-6],< 100,,
CCCN(CCC)C(=O)C1=Cc2c(F)cc(-c3ccc4c(=O)n(CCS(C)(=O)=O)ccc4c3)cc2N=C(N)C1 [Compound 1-10-4],< 100,,
CCCN(CCC)C(=O)C1=Cc2ccc(-c3ccc4c(=S)n(Cc5cnccn5)ncc4c3)cc2N=C(N)C1 [Compound 1-14-6],< 100,,
CCCN(CCC)C(=O)C1=Cc2ccc(-c3cc4c(=O)n(CC)ccc4s3)cc2N=C(N)C1 [Compound 1-5-2],1000 to 10000,,
CCCN(CCC)C(=O)C1=Cc2ccc(-c3cnc4c(c3)CN(CCO)C4=O)cc2N=C(N)C1 [Compound 1-6-1],100 to 1000,,
CCCN(CCC)C(=O)C1=Cc2ccc(-c3ccc4c(=O)n(Cc5nc(OC)cc(OC)n5)ncc4c3)cc2N=C(N)C1 [Compound 1-8-21],< 100,,
CCCN(CCC)C(=O)C1=Cc2ccc(-c3ccc4c(=S)n(Cc5ncccn5)ncc4c3)cc2N=C(N)C1 [Compound 1-14-1],< 100,,< 10
CCCN(CCC)C(=O)C1=Cc2ccc(-c3ccc4c(=O)n(CCP(=O)(OCC)OCC)ncc4c3)cc2N=C(N)C1 [Compound 1-8-14],< 100,,

# Results, then the compound that gave them:
EC50 (TLR8; [1]) [nM],EC50 (TLR7) [nM],EC50 (TLR8; bound stated) [nM],SMILES
< 100,> 50000,,CCCN(CCC)C(=O)C1=Cc2ccc(-c3ccc4c(=O)n(CCSC)ccc4c3)cc2N=C(N)C1 [Compound 1-2-22]
< 100,1000 to 10000,,CCCN(CCC)C(=O)C1=Cc2c(F)cc(-c3ccc4c(=O)n(CC(=O)N(C)C)ccc4c3)cc2N=C(N)C1 [Compound 1-10-9]
100 to 1000,,,CCCN(CCC)C(=O)C1=Cc2ccc(-c3ccc4c(=O)n(CC)c(C)cc4c3)cc2N=C(N)C1 [Compound 1-2-2]
< 100,,,CCCN(CCC)C(=O)C1=Cc2ccc(-c3ccc4c(=O)n(CCC(N)=O)ncc4c3)cc2N=C(N)C1 [Compound 1-8-7]
100 to 1000,,,CCCN(CCC)C(=O)C1=Cc2ccc(-c3ccc4c(=O)n(CCc5cnccn5)ccc4c3)cc2N=C(N)C1 [Compound 1-2-47]
< 100,,,CCCN(CCC)C(=O)C1=Cc2ccc(-c3ccc4c(=O)n(CC(=O)NC)cnc4c3)cc2N=C(N)C1 [Compound 1-7-3]
< 100,,,CCCN(CCC)C(=O)C1=Cc2c(F)cc(-c3ccc4c(=O)n(CC(=O)NC)ccc4c3)cc2N=C(N)C1 [Compound 1-10-3]
100 to 1000,,,CCCN(CCC)C(=O)C1=Cc2ccc(-c3ccc4c(=O)n(CC)ccc4c3)cc2N=C(N)C1 [Compound 1-2-3]
< 100,,< 10,CCCN(CCC)C(=O)C1=Cc2ccc(-c3ccc4c(=O)n(Cc5nnn(C)n5)ccc4c3)cc2N=C(N)C1 [Compound 1-2-39]
100 to 1000,,,CCCN(CCC)C(=O)C1=Cc2ccc(-c3ccc4c(=O)n(CCN(C)C)ccc4c3)cc2N=C(N)C1 [Compound 1-2-12]
100 to 1000,,,CCCCn1ccc2cc(-c3ccc4c(c3)N=C(N)CC(C(=O)N(CCC)CCC)=C4)ccc2c1=O [Compound 1-2-27]
< 100,,,CCCN(CCC)C(=O)C1=Cc2ccc(-c3ccc4c(c3)CN(CC)C4=O)cc2N=C(N)C1 [Compound 1-3-1]
100 to 1000,,,CCCN(CCC)C(=O)C1=Cc2ccc(-c3ccc4c(=O)n(Cc5ccno5)ccc4c3)cc2N=C(N)C1 [Compound 1-2-29]
< 100,,,CCCN(CCC)C(=O)C1=Cc2ccc(-c3ccc4c(=O)n(CC(=O)N5CCCC5)ccc4c3)cc2N=C(N)C1 [Compound 1-2-26]
< 100,,,CCCN(CCC)C(=O)C1=Cc2ccc(-c3ccc4c(=O)n(Cc5nccs5)ncc4c3)cc2N=C(N)C1 [Compound 1-8-10]
< 100,,,CCCN(CCC)C(=O)C1=Cc2ccc(-c3ccc4c(=O)n(CC(C)(C)O)cnc4c3)cc2N=C(N)C1 [Compound 1-7-5]
